The text below walks through data of PMC6287599, “2,6-Bis(2-Benzimidazolyl)Pyridine (BBP) Is a Potent and Selective Inhibitor of Small Conductance Calcium-Activated Potassium (SK) Channels” (Frontiers in Pharmacology, 2018).

Molecules are shown by their SMILES.

The assay deals with hSK2 (Homo sapiens, UniProt Q9H2S1). As to the kind of experiment: Automated patch clamp (QPatch 16), whole cell, stable HEK293 cell line expressing hSK2. The class given is cell-based. As to conditions: HEK stable line, 400 nM free intracellular calcium, mean ± SEM, n = 8. The protocol: Three different stable HEK293 cell lines expressing hSK1, hSK2 or hSK3 (NeuroSearch A/S, Ballerup, Denmark) and a CHO stable cell line expressing hERG (University of Copenhagen, Copenhagen, Denmark) were used for automated patch clamp. These cells were cultivated and prepared as previously described (Skarsfeldt et al., [2016]).
Automated patch clamp (QPatch 16, Sophion, Denmark) on SK-expressing HEK293 cell lines was conducted as previously described (Simó-Vicens et al., [2017b]). Briefly, SK currents were elicited by voltage-ramps starting at −80 mV and finishing at +80 mV from a holding potential of 0 mV. Extracellular solution contained 0.1 mM CaCl2, 3 mM MgCl2, 154 mM KCl, 10 mM HEPES and 10 mM glucose with pH 7.4. Intracellular solution for SK experiments contained 8.106 mM CaCl2 (final free calcium concentration of 400 nM), 1.167 mM MgCl2, 10 mM EGTA, 154 mM KCl, 10 mM HEPES, 31.25/ 10 mM KOH/EGTA and 15 mM KOH with pH 7.2. Automated patch clamp on hERG-expressing CHO cell line was performed also as previously described (Skarsfeldt et al., [2016]).
Individual IC50 values were calculated for each cell with the built-in nonlinear fit log(inhibitor) vs. normalized response equation:
Where Y is the normalized response, from 100, corresponding to current recorded during saline perfusion, down to 0, corresponding to currents recorded in the presence of bicuculline methiodide 100 μM. […]
A general note: The patch-clamp technique gives a direct electrical read-out from membranes.

Consider `c1cc(-c2nc3ccccc3[nH]2)nc(-c2nc3ccccc3[nH]2)c1` [BBP, 2,6-Bis(2-benzimidazolyl)pyridine], for which the IC50 (usually the concentration at which inhibition is half-maximal) came to 400 ± 100 nM.
